We go through eleven molecules from patent US20020025332A1, “Cosmetic compositions containing substituted sulfonamide derivatives” (Unilever Home & Personal Care USA, Division of Conopco, Inc., priority 2000, published 2002).

This experiment has as its system human sebocytes. Description: Sebum suppression: 14C-acetate label remaining in cultured human sebocytes after treatment. The experiment is classed as cell-based. Conditions: for activity at 1 µM / activity at 10 µM / activity at 100 µM / activity at 0.1 µM: read-out: % of Control; for sebum suppressive activity in the presence of retinol: in the presence of retinol / a retinoid versus compound alone. The procedure:
Compounds A through K were tested for their potential to suppress sebum expression, alone or in the presence of a retinoid.
Secondary cultures of human sebocytes obtained from an adult […] were grown in 48-well tissue culture plates (Costar Corp.; Cambridge, Mass.) or 96-well tissue culture plates (Packard Co.; Meriden, Conn.) until confluent. Sebocyte growth medium consisted of Clonetics Keratinocyte Basal Medium (KBM) supplemented with 14 μg/ml bovine pituitary extract, 0.4 μg/ml hydrocortisone, 5 μg/ml insulin, […], 1.2×10^-10 M cholera toxin, 100 units/ml penicillin, and 100 μg/ml streptomycin. All cultures were incubated at 37° C. in the presence of 7.5% CO2. Medium was changed three times per week.
On the day of experimentation, the growth medium was removed and the sebocytes washed three times with sterile Dulbecco's Modified Eagle Medium (DMEM; phenol red free). Fresh DMEM was added to each sample (duplicates, triplicates, or quadruplicates depending on the experiment) with 5 microliter of test agent solubilized in ethanol either alone or in the presence of one or 10 micromolar of retinol. Controls consisted of addition of ethanol alone, retinol alone, or phenol red, which has estrogen-like activity and is included as a positive control.
Each plate was returned to the incubator for 20 hours followed by the addition of 14C-acetate buffer (5 mM final concentration, 56 mCi/mmol specific activity). Sebocytes were returned to the incubator for four hours afterwhich each culture was rinsed three times with phosphate buffered saline to remove unbound label. Radioactive label remaining in the sebocytes was harvested and counted using a Beckman scintillation counter.

The mark [1] stands for this setting: 1 μM test agent + 10 μM Retinol.
Where [2] appears, read: 10 μM test agent + 1 μM Retinol.
[3] abbreviates: Homo sapiens, 1 μM test agent + 1 μM Retinol.
Where [4] appears, read: Homo sapiens, 1 μM test agent + 10 μM Retinol.
Where [5] appears, read: Homo sapiens, 1 μM test agent alone.
[6] abbreviates: Homo sapiens, 10 μM test agent + 1 μM Retinol.
Where [7] appears, read: Homo sapiens, 10 μM test agent alone.
[8] abbreviates: 10 μM test agent + 10 μM Retinol.
Setting [9] is: Homo sapiens, 10 μM test agent + 10 μM Retinol.
[10] abbreviates: Homo sapiens, 100 μM test agent + 1 μM Retinol.
[11] abbreviates: Homo sapiens, 100 μM test agent + 10 μM Retinol.
Setting [12] is: Homo sapiens, 100 μM test agent alone.

Where “and” joins values, the source holds several entries; their conditions need not be identical. Identical values can stand only once. Like-named read-outs stand apart in the source and are kept apart here.

As for `COc1ccc(S(=O)(=O)Nc2cccc(C(C)O)c2)cc1` (stereo not drawn) [Compound A], the “sebum suppressive activity in the presence of retinol” value is given as “improved sebum suppressive activity”. Also, for the setting “1 μM test agent + 1 μM Retinol”, the “% of Control” value amounted to 102.5%. For the same molecule, the “% of Control” value under setting [1] was found to be 94.6%. Where the note is “1 μM test agent alone, 1 µM”, the “% of Control” value is 100.7%. Besides, under setting [2], the “% of Control” value amounted to 65.8%. Further, the “% of Control” value (10 μM test agent alone, 10 µM) came out at 91.9%. For the same molecule, the activity at 1 µM under setting [3] was found to be 112%. Also, the activity at 1 µM under setting [4] amounted to 101%. Also, under setting [5], the activity at 1 µM was 111%. For the same molecule, the activity at 10 µM under setting [6] was found to be 46%. Moreover, under setting [7], the activity at 10 µM is 109%.
For the molecule `CC(O)c1cccc(NS(=O)(=O)c2c(F)c(F)c(F)c(F)c2F)c1` (stereo not drawn) [Compound B], the “% of Control” value turned out to be 94.7% (1 μM test agent + 1 μM Retinol); 96.5% under setting [1]; 98.4% (1 μM test agent alone, 1 µM); 90.1% under setting [2]; 84.8% under setting [8]; 89.3% (10 μM test agent alone, 10 µM). In addition, the activity at 1 µM under setting [3] turned out to be 90.9%, the activity at 1 µM under setting [4] came out at 96.4% and the activity at 1 µM under setting [5] came to 79.8%. The activity at 10 µM under setting [6] was found to be 80.6%, the activity at 10 µM under setting [9] was found to be 84.4% and the activity at 10 µM under setting [7] turned out to be 95.4%. In addition, the activity at 100 µM is, setting by setting: under setting [10], 75.3%; under setting [11], 72.2%; under setting [12], 74.2%.
Take `CC(O)c1cccc(NS(=O)(=O)c2ccc(Cl)c([N+](=O)[O-])c2)c1` (stereo not drawn) [Compound C]: the “sebum suppressive activity in the presence of retinol” value is recorded as “improved sebum suppressive activity”. In addition, the activity at 1 µM under setting [3] amounted to 87.7%. Under setting [4], the activity at 1 µM is 77.5%. Besides, the activity at 1 µM under setting [5] turned out to be 101%. Besides, the activity at 10 µM under setting [6] was 95.5%. Under setting [9], the activity at 10 µM was 84.8%. Moreover, the activity at 10 µM under setting [7] stood at 79%. In addition, the activity at 100 µM under setting [10] stood at 20.8%. The activity at 100 µM under setting [11] worked out at 5.3%. Further, the activity at 100 µM under setting [12] came out at 37.8%.
Regarding `CC(O)c1cccc(NS(=O)(=O)c2cccc3c(N(C)C)cccc23)c1` (stereo not drawn) [Compound D], the “sebum suppressive activity in the presence of retinol” value is reported as “improved sebum suppressive activity”. In addition, the “% of Control” value under setting [1] amounted to 102.8%. Moreover, the “% of Control” value (1 μM test agent alone, 1 µM) was 126.4% and 102.4%. Further, the “% of Control” value (10 μM test agent alone, 10 µM) was 71.6% and 43.3%. Besides, the activity at 1 µM under setting [3] was 102%. Also, the activity at 1 µM under setting [4] came out at 89.1%. The activity at 10 µM under setting [6] came out at 60.8%. For the same molecule, under setting [11], the activity at 100 µM was 1.2%. Besides, the activity at 100 µM under setting [12] was 6.7%.
Take `CC(O)c1cccc(NS(=O)(=O)c2cccs2)c1` (stereo not drawn) [Compound E]: the “% of Control” value was 98.3% (1 μM test agent + 1 μM Retinol); 110.2% under setting [1]; 103.3% (1 μM test agent alone, 1 µM); 5.7% and 1.6% under setting [2]. Also, the activity at 1 µM stood at 103% under setting [3], 102% under setting [4] and 94.6% under setting [5].
`O=[N+]([O-])c1cc(S(=O)(=O)Nc2ccc3c(c2)OCCO3)ccc1Cl` [Compound F]: the “% of Control” value is, setting by setting: (1 μM test agent + 1 μM Retinol) 100.4% and 75.9%; under setting [1], 74.2%; (1 μM test agent alone, 1 µM) 80.7%; under setting [2], 1.8% and 0.6%. For the same molecule, the activity at 1 µM under setting [4] came out at 89.1% and the activity at 1 µM under setting [5] amounted to 79.6%. In addition, the activity at 10 µM under setting [9] came to 1.2%.
Consider `O=S(=O)(Nc1ccc2c(c1)OCCO2)c1ccc2ccccc2c1` [Compound G], for which the “sebum suppressive activity in the presence of retinol” value is given as “improved sebum suppressive activity”. Also, the “% of Control” value (1 μM test agent alone, 1 µM) was 82.0%. Further, under setting [2], the “% of Control” value stood at 39.9%. Moreover, the “% of Control” value under setting [8] is 13.1%. Further, the “% of Control” value (10 μM test agent alone, 10 µM) was 45.7% and 25.0%. Also, the activity at 0.1 µM (Homo sapiens, 0.1 μM test agent + 1 μM Retinol) came out at 103%. Moreover, for the setting “Homo sapiens, 0.1 μM test agent + 10 μM Retinol”, the activity at 0.1 µM is 94.1%. Moreover, the activity at 0.1 µM (Homo sapiens, 0.1 μM test agent alone, 14C-acetate label in sebocytes) amounted to 101%. Further, under setting [5], the activity at 1 µM was determined as 67.5%. Also, the activity at 10 µM under setting [6] is 24.8%. The activity at 10 µM under setting [9] is 17.9%.
For the molecule `CN(C)c1cccc(NS(=O)(=O)c2ccc(Cl)c([N+](=O)[O-])c2)c1` [Compound H], the “% of Control” value reads like this: (1 μM test agent + 1 μM Retinol) 88.0% and 90.2% and 65.1%; under setting [1], 86.8% and 78.8% and 53.6% and 91.1%; (1 μM test agent alone, 1 µM) 96.1% and 71.7% and 66.6% and 83.4%; under setting [8], 80.3% and 76.1% and 79.2% and 118.0%. Moreover, the activity at 100 µM is, setting by setting: under setting [11], 3.9%; under setting [12], 44.2%.
Turning to `CN(C)c1cccc(NS(=O)(=O)c2ccc3ccccc3c2)c1` [Compound J], the “% of Control” value is, setting by setting: under setting [1], 67.9% and 93.8%; (1 μM test agent alone, 1 µM) 55.6%; under setting [8], 69.8%; (10 μM test agent alone, 10 µM) 81.7%. The activity at 1 µM runs as follows: under setting [3], 74.1%; under setting [5], 74.6%. The activity at 10 µM stood at 64.7% under setting [6], 63.9% under setting [9] and 67.5% under setting [7]. The activity at 100 µM under setting [11] amounted to 2% and the activity at 100 µM under setting [12] was 1.2%.
Take `O=S1(=O)OC(c2ccc(O)cc2)(c2ccc(O)cc2)c2ccccc21` [Phenol Red, phenol red, reference compound]: the “% of Control” value (28 μM (positive control) alone, 28 µM) is 74.7% and 68.4% and 84.4%; the “% of Control” value (280 μM (positive control) alone) was 54.2% and 52.5%. Moreover, under “Homo sapiens, 28 μM (positive control) alone”, the activity at 28 µM was 67.6%.
As to `CC1=C(/C=C/C(C)=C/C=C/C(C)=C/CO)C(C)(C)CCC1` [Retinol, retinol, reference compound], the “% of Control” value (1 μM test agent alone, 1 µM) is 85.5% and 96.5% and 99.9% and 103.7% and 99.3% and 93.9%. Also, under setting [5], the activity at 1 µM came to 98.4%. Also, the sebum suppressive activity entry (alone, 1 or 10 μM) was “inactive”.
